Experimental data: ChEMBL document CHEMBL4043137, “Structure-based design, synthesis and in vitro antiproliferative effects studies of novel dual BRD4/HDAC inhibitors” (Bioorg Med Chem Lett, 2017)

Key:
MV4-11 = test: cells; format: functional, cell-based; conditions: Homo sapiens, MV4-11, 72 h
Description: Antiproliferative activity against human MV4-11 cells after 72 hrs by MTT assay

OCI-AML2 = test: cells; format: functional, cell-based; conditions: Homo sapiens, OCI-AML2, 72 h
Description: Antiproliferative activity against human OCI-AML2 cells after 72 hrs by MTT assay

OCI-AML-3 = test: cells; format: functional, cell-based; conditions: Homo sapiens, OCI-AML-3, 72 h
Description: Antiproliferative activity against human OCI-AML3 cells after 72 hrs by MTT assay

[1] = target: T1, Bromodomain-containing protein 4 (Homo sapiens, UniProt O60885); test: Inhibition of human BRD4 bromo domain 2
[2] = target: T1, Bromodomain-containing protein 4; test: Inhibition of human BRD4 bromo domain 2 at 5 uM
[3] = target: T1, Bromodomain-containing protein 4; test: Inhibition of human BRD4 bromo domain 2 at 0.5 uM
[4] = target: T1, Bromodomain-containing protein 4; test: Inhibition of human BRD4 bromo domain 1
Histone deacetylase 1 = Histone deacetylase 1 (Homo sapiens, UniProt Q13547); test: Inhibition of recombinant human HDAC1 after 30 mins by fluorescence assay
Histone deacetylase 1, sequence (Q13547 whole entry): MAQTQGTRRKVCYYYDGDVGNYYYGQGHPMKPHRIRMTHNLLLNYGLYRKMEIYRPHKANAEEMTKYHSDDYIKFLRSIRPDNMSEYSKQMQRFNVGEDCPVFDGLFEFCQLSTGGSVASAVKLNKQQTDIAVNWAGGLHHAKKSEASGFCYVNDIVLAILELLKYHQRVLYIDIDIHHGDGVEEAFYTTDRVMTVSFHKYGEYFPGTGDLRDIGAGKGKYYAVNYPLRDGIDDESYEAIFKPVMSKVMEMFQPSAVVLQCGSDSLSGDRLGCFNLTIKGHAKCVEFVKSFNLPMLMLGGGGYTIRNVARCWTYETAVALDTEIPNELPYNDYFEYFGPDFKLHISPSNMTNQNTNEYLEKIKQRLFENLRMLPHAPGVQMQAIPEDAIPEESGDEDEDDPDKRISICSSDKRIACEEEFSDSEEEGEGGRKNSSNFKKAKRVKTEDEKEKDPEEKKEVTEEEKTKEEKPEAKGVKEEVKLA

[5] = target: T1, Bromodomain-containing protein 4; test: Inhibition of BRD4 (unknown origin)

SMILES	IC50 (MV4-11) [µM]	IC50 (OCI-AML2) [µM]	IC50 (OCI-AML-3) [µM]	IC50 [1] [µM]	inhibition [2] [%]	inhibition [3] [%]	IC50 [4] [µM]	IC50 (Histone deacetylase 1) [µM]	IC50 [5] [µM]
COc1cc(OC)c2c(=O)[nH]c(-c3ccc(OCc4ccc(/C=C/C(=O)NO)cc4)cc3)nc2c1	1.97	1.78	1.8	–	–	–	–	–	–
COc1cc(OC)c2c(=O)[nH]c(-c3cc(C)c(OCCCCC(=O)NO)c(C)c3)nc2c1	1.67	1.52	1.09	0.225	91	73	> 5	0.032	–
COc1cc(OC)c2c(=O)[nH]c(-c3cc(C)c(OCCCCCC(=O)NO)c(C)c3)nc2c1	0.92	0.98	0.67	–	97	90	–	–	–
COc1cc(OC)c2c(=O)[nH]c(-c3cc(C)c(OCCCCCCC(=O)NO)c(C)c3)nc2c1	–	–	–	–	88	29	–	–	–
COc1cc(OC)c2c(=O)[nH]c(-c3cc(C)c(OCCCCCCCC(=O)NO)c(C)c3)nc2c1	2.22	2.21	1.83	–	99	59	–	–	–
COc1cc(OC)c2c(=O)[nH]c(-c3ccc(OCCCCCC(=O)NO)cc3)nc2c1	4.28	13.6	11.1	–	–	–	–	–	–
COc1cc(OC)c2c(=O)[nH]c(-c3cc(C)c(OCCCC(=O)NO)c(C)c3)nc2c1	5	4.53	5.53	–	90	42	–	–	–
COc1cc(OC)c2c(=O)[nH]c(-c3cc(C)c(Oc4ccc(C(=O)NO)cn4)c(C)c3)nc2c1	1.39	6.36	3.04	–	93	51	–	–	–
COc1cc(OC)c2c(=O)[nH]c(-c3cc(C)c(OCCO)c(C)c3)nc2c1 [APABETALONE]	4.48	8.31	7.17	–	–	–	–	–	–
COc1cc(OC)c2c(=O)[nH]c(-c3cc(C)c(OCc4ccc(/C=C/C(=O)NO)cc4)c(C)c3)nc2c1	0.56	0.38	0.43	0.401	83	62	> 5	0.204	–

More lines, now with the values ahead:

IC50 (MV4-11) [µM]	IC50 (OCI-AML2) [µM]	IC50 (OCI-AML-3) [µM]	IC50 [1] [µM]	inhibition [2] [%]	inhibition [3] [%]	IC50 [4] [µM]	IC50 (Histone deacetylase 1) [µM]	IC50 [5] [µM]	SMILES
–	–	–	–	–	–	–	–	0.036	C/C=C1\NC(=O)[C@H]2CSSCC/C=C/[C@H](CC(=O)N[C@H](C(C)C)C(=O)N2)OC(=O)[C@H](C(C)C)NC1=O [ROMIDEPSIN]
–	–	–	–	–	–	–	–	0.005	Cc1[nH]c2ccccc2c1CCNCc1ccc(/C=C/C(=O)NO)cc1 [PANOBINOSTAT]
–	–	–	–	10	2	–	–	0.01	O=C(CCCCCCC(=O)Nc1ccccc1)NO [VORINOSTAT]
9.88	12.2	9.31	–	–	–	–	–	–	COc1cc(OC)c2c(=O)[nH]c(-c3ccc(OCCCCC(=O)NO)cc3)nc2c1
–	–	–	–	98	87	–	–	–	COc1cc(OC)c2c(=O)[nH]c(-c3cc(C)c(O)c(C)c3)nc2c1
–	–	–	–	93	41	–	–	–	COc1cc(OC)c2c(=O)[nH]c(-c3cc(C)c(OC/C=C/C(=O)NO)c(C)c3)nc2c1
